For one data set, the target named is T1, OATP1A2 (Homo sapiens, UniProt P46721).
T1 construct: host or cells: HEK293
T1 sequence (P46721 1-670): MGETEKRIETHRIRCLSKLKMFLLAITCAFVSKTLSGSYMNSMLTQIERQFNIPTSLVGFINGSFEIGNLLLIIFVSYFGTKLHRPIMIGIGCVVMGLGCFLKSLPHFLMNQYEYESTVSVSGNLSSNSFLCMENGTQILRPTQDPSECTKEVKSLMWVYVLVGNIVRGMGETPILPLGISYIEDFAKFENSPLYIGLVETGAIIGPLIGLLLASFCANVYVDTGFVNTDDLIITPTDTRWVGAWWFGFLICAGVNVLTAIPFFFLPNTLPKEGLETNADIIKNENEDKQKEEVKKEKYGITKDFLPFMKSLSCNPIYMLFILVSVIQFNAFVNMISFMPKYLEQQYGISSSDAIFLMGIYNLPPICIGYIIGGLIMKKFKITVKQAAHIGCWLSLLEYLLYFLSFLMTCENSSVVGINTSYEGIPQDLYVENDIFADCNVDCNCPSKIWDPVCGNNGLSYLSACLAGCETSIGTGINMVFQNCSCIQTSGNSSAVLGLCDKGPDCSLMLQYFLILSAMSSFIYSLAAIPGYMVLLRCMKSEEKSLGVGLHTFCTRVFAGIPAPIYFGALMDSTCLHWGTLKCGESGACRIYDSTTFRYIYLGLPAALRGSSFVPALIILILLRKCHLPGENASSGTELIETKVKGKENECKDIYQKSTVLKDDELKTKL
Description: Uptake transporter inhibition assay, OATP1A2. The data set is classed as cell-based. As to conditions: HEK293 cells overexpressing transporter. As to the method:
Experiment B4: Bile Acid Transporters Inhibition in the Liver.
The compound was tested on a panel of 10 transporters: BSEP, MRP2, MRP3, MRP4 in a vesicular transport inhibition assay and NTCP, OAT1, OAT2v1, OATP1A2, OATP1B1, OATP1B3 in an uptake transporter inhibition assays.
Transporter uptake inhibition test was performed on mammal HEK293 cells overexpressing of a respective transporter. Cells were cultured at 37±1° C. and seeded on 96-well tissue culture plate at 1×10^5/well. Substrate was removed prior to experiment and cells were washed twice with 100 μl of respective buffer (HK pH 7.4 for OATP1B1 and HBSS pH 7.4 for NTCP, OAT1, OAT2v1, OATP1A2, and OATP1B3). Uptake studies were performed at 37±1° C. in 50 μl of respective buffer containing radioactively tagged substrate and tested compound or solvent.
After experiment cells were washed twice with 100 μl of ice-cold respective buffer and lysed with 50 μl of 0.1M NaOH. Transport of radioactively tagged substrate was determined by scintillation counter measurement.

Another data set concerns the target T2, MRP3 (Homo sapiens, UniProt O15438).
T2 construct: host or cells: HEK293 (membrane vesicles)
Description: Vesicular transport inhibition assay, MRP3. Type of data set: biochemical. The following applies: membrane vesicles from HEK293 cells. The method, then: (§1) Experiment B4: Bile Acid Transporters Inhibition in the Liver. […] The compound was tested on a panel of 10 transporters: BSEP, MRP2, MRP3, MRP4 in a vesicular transport inhibition assay and NTCP, OAT1, OAT2v1, OATP1A2, OATP1B1, OATP1B3 in an uptake transporter inhibition assays. Vesicular transport inhibition assay was performed on membrane vesicles isolated from mammal HEK293 cells overexpressing human ABC transporters. Tested compound were incubated with vesicles and substrates for respective tested transporters. Incubation was performed in the presence of 4 mM ATP or AMP in order to differentiate between uptake by a transporter and passive diffusion into vesicles. In the case of MRP2 and MRP3, reactions were performed in the presence of 2 mM glutathione. Tested compounds were added to the reaction mixture dissolved in 0.75 μl of a solvent (1% of final incubation volume). Reaction mixtures were preincubated for 15 minutes at 37±1° C. Reactions were started by the addition of 25 μl of 12 mM MgATP (or 12 mM AMP) in test buffer, as a background control, separately preincubated.

The target in another data set is T3, MRP4 (Homo sapiens, UniProt O15439).
T3 construct: host or cells: HEK293 (membrane vesicles)
T3 sequence (O15439 1-1325): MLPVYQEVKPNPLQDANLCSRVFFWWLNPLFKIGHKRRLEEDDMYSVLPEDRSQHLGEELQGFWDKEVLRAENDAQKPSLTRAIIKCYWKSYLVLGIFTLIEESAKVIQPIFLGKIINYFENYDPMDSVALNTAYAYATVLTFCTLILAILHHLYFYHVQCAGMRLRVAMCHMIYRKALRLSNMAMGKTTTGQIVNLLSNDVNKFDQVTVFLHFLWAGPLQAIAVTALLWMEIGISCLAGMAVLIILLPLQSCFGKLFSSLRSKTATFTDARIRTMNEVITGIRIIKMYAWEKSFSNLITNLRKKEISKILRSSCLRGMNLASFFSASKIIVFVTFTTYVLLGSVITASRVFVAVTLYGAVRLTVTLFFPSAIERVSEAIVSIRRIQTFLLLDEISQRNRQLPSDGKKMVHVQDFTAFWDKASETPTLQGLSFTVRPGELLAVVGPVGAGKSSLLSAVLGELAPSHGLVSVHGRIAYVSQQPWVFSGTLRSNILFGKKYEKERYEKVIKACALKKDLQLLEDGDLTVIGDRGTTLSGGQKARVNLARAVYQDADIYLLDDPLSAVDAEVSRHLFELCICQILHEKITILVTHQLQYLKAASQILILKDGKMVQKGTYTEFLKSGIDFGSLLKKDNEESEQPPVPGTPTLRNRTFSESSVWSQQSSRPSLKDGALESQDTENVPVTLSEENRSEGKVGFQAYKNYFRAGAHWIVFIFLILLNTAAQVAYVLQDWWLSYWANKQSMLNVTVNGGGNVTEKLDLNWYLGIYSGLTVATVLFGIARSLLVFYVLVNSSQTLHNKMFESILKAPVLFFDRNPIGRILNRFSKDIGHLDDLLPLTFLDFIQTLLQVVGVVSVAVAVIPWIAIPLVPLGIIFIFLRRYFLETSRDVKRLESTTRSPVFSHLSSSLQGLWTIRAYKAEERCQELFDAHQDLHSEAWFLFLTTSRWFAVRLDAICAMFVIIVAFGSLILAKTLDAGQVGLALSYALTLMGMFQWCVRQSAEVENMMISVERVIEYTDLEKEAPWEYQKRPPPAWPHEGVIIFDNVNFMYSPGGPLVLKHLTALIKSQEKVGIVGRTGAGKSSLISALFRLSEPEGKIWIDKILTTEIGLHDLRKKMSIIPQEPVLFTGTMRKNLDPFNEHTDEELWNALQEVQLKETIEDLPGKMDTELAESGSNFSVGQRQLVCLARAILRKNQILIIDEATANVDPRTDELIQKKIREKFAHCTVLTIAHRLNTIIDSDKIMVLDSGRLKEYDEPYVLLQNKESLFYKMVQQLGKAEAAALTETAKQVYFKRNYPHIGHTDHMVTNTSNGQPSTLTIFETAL
The data set can be described thus: Vesicular transport inhibition assay, MRP4. Type of data set: biochemical. As to conditions: membrane vesicles from HEK293 cells. As to the method:
as §1

For the next data set, the target named is T4, MRP2 (Homo sapiens, UniProt Q92887).
T4 construct: host or cells: HEK293 (membrane vesicles)
T4 sequence (Q92887 whole entry): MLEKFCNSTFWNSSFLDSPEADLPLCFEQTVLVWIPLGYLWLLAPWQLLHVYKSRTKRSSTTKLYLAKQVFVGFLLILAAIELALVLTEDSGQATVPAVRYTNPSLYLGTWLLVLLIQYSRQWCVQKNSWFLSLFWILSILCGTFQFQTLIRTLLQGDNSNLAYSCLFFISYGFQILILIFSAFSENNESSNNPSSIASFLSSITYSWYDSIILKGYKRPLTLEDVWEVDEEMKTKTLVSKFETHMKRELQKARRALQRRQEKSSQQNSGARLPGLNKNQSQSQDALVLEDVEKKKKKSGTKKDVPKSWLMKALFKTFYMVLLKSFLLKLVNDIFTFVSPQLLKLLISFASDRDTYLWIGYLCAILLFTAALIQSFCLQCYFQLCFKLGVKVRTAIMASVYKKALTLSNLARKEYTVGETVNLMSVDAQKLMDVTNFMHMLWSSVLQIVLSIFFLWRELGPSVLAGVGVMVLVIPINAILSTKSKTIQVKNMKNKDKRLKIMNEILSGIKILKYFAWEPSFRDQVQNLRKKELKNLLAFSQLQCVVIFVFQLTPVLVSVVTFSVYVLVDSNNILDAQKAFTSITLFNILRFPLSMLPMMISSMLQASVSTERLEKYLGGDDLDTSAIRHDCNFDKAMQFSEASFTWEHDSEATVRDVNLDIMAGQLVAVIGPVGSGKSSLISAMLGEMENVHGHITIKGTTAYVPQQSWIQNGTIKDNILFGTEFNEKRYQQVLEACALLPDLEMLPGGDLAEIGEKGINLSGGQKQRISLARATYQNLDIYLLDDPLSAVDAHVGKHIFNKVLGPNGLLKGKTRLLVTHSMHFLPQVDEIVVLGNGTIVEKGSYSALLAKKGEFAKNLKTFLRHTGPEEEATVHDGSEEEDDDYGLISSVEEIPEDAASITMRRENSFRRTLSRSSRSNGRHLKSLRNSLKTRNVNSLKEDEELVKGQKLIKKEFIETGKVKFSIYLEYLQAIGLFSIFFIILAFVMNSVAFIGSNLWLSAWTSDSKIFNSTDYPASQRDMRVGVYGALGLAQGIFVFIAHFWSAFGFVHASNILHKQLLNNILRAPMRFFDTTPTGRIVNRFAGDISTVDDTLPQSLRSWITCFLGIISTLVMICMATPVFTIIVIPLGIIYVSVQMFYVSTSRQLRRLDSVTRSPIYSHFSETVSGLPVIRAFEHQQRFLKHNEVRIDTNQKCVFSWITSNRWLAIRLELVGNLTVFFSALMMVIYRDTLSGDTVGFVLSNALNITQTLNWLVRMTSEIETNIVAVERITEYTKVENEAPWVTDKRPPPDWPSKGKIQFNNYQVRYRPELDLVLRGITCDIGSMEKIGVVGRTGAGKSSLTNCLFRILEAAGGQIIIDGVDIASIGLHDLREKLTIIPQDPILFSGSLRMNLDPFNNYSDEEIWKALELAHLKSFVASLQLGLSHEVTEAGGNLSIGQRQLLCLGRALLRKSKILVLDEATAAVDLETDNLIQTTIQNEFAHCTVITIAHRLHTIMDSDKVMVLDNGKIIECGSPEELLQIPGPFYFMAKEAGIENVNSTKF
Description: Vesicular transport inhibition assay, MRP2. The data set is classed as biochemical. The following applies: membrane vesicles from HEK293 cells. As to the method: as §1

Structures can show the parent of a compound that is named as a salt.

T2 sequence (O15438 whole entry): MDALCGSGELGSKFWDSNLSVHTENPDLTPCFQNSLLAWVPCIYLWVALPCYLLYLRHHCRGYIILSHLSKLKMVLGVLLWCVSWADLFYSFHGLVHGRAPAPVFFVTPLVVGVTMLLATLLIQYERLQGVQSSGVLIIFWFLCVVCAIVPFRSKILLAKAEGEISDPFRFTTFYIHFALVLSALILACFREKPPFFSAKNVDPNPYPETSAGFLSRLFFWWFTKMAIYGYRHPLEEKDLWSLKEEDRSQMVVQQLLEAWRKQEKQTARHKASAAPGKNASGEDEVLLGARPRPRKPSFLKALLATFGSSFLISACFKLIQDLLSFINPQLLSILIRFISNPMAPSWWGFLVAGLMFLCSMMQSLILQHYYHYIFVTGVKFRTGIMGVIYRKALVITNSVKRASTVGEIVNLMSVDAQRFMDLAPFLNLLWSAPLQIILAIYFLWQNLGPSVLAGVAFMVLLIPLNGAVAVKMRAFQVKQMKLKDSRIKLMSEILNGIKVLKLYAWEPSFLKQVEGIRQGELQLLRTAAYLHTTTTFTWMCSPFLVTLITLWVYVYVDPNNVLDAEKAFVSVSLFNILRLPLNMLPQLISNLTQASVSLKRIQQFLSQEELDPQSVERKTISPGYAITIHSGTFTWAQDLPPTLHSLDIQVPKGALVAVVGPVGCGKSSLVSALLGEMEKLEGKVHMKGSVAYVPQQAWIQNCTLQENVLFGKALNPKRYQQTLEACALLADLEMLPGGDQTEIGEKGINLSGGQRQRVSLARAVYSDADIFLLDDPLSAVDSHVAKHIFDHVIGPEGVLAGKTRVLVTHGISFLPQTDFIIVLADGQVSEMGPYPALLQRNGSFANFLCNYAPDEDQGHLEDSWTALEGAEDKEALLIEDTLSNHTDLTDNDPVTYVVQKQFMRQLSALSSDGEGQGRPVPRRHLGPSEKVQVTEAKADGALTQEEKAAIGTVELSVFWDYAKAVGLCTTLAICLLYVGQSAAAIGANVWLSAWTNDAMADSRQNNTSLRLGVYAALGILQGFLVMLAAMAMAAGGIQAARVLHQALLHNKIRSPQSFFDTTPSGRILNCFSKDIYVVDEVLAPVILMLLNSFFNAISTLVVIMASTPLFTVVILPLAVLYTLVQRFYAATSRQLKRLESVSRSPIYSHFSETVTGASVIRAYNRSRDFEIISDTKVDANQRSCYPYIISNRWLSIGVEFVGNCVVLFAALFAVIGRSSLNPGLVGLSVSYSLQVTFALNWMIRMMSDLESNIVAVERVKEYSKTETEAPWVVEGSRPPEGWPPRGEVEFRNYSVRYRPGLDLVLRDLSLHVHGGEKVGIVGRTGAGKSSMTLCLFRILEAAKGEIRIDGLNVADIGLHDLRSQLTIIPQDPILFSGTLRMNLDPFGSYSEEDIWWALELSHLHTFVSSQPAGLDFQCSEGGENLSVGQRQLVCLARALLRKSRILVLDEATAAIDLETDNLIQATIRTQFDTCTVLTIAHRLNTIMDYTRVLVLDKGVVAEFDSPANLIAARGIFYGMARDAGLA

Take `Cc1cc(OCCCS(C)(=O)=O)cc(C)c1-c1cccc(COc2ccc3c(c2)OC[C@H]3CC(=O)O)c1` [Example R1, 2[(3S)-6-({3-[4-(3-methanesulfonylpropoxy)-2,6-dimethylphenyl]-phenyl}methoxy)-2,3-dihydro-1-benzofuran-3-yl]acetic acid, reference compound]: the half-maximal inhibitory concentration (IC50) at OATP1A2 came to 10.6 µM; at MRP3 (2 mM glutathione) it was 31.8 µM; against MRP4, 6.9 µM; against MRP2 (2 mM glutathione), 48.1 µM.

Consider `CC#C[C@@H](CC(=O)O)c1ccc(OCC(C)=C(C)C)cc1` [Example S1, (3S)-3-{4-[(2,3-dimethylbut-2-en-1-yl)oxy]phenyl}hex-4-ynoic acid calcium salt], for which the IC50 is 118 µM against OATP1A2, above 100 µM against MRP3 (symbol per footnote), 131 µM against MRP4 and above 100 µM at MRP2 (symbol per footnote).

For the origin of these results see patent US11964938B2, “3-phenyl-4-hexynoic acid derivatives as GPR40 agonists” (CELON PHARMA S.A., priority 2018, dated 2024).
